Test results published in patent US8709764B2, “Enzymatic demethylation of flavonoids” (Universiteit Gent, priority 2005, dated 2014).

Assays:
human fecal cultures = test: Incubation of X or IX with human fecal cultures A-D for 8 days, conversion products detected by HPLC; type: in vitro ADME; details: fecal cultures A, B and D, 25 mg/l, 8 days
Procedure: Fecal slurries of 20% (w/v) fresh fecal samples were prepared by homogenizing the feces with phosphate buffered saline (0.1 M, pH 7) containing 1 g/l sodiumthioglycolate as reducing agent. The particulate material was removed by centrifugation (1 min, 500×g). The supernatant is hereafter called “the culture”.
(§1) The capacity of the cultures obtained from fecal samples A, B, C and D (further referred as cultures A-D) to degrade or transform the hop prenylflavonoid IX was tested by incubating the fecal cultures (10% (v/v)) in Brain Heart Infusion broth (with 0.5 g/l cystein-HCl) with 25 mg/l of isoxanthohumol for a period of 8 days under anaerobic conditions. Extracts of the incubations at days 0 and 8 were assayed for bioactive transformation products of IX using a Yeast Estrogenic Screen, according to De Boever et al. (2001) Env. Health Perspectives 109, 691-697, based on Routledge & Sumpter (1996) Environ. Toxicol. Chem. 15, 241-248. In brief, Saccharomyces cerevisiae, was transformed with the human estrogen receptor (ERα) gene, together with expression plasmids containing responsive elements and the lacZ reporter gene (encoding the enzyme β-galactosidase). β-galactosidase activity is quantified at 540 nm by the conversion of the chromogenic substance chlorophenol red-β-D-galactopyranoside into chlorophenol red. The bioassay response is expressed as the absorbance at 540 nm divided by the optical density at 630 nm [(A540/A630)net]. The estrogenic activity of the samples was expressed as percentage equivalence to 10 nM estradiol (E2) which elicited a 100% response in the estrogen receptor bioassay. The bioassays were performed in 96-well plates in which 10 μL of the test compounds were tested and incubated with 240 μL of the genetically modified yeast (optical density of 0.25 at 610 nm). Serial dilutions of the test compounds were made in dimethylsulfoxide, which allowed generating dose-response curves for doses (ordinate) versus activity (abscissa). The data were fitted by a 4 parametric logistic model using the Marquardt-Levenberg algorithm (Sigmaplot 4.0, SPSS Inc., Chicago, Ill., USA) (De Boever et al. (2001) Env. Health Perspectives 109, 691-697).
To further test this transformation, cultures A-D (10% (v/v)) were incubated for 8 days in Brain Heart Infusion broth (with 0.5 g/l cystein-HCl) with either X or IX at a concentration of 25 mg/l under anaerobic conditions and conversion products were detected by HPLC (Table 1). […] However, in culture C almost 40% of 8-PN was recovered, which explains the increase in estrogenic properties of culture C.

[1] = target: T1, human estrogen receptor (ERα) (Homo sapiens, UniProt P03372); test: Yeast Estrogenic Screen of extracts of fecal culture incubations with IX; type: cell-based
T1 construct: expressed in transfected cells; host or cells: Saccharomyces cerevisiae
T1 sequence (P03372 1-595): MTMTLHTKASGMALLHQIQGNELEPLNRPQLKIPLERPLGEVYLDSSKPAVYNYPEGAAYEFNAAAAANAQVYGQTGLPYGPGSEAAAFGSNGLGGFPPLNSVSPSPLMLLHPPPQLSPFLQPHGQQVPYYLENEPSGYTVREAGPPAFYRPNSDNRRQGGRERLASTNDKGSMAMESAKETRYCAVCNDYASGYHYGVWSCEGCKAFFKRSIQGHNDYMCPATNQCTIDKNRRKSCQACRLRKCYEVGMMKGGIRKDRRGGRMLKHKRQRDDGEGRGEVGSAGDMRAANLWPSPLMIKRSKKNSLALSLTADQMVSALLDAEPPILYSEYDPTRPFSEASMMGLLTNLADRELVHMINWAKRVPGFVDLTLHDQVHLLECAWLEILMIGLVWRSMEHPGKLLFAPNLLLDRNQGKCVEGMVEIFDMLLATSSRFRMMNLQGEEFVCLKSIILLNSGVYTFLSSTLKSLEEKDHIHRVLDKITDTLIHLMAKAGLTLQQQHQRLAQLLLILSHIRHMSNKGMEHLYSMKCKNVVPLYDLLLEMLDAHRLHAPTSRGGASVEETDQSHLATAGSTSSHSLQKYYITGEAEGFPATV
Procedure: as §1, with “The bioassays were performed in 96-well plates in which 10 μL of the test compounds were tested and incubated with 240 μL of the genetically modified yeast (optical density of 0.25 at 610 nm). Serial dilutions of the test compounds were made in dimethylsulfoxide, which allowed generating dose-response curves for doses (ordinate) versus activity (abscissa). The data were fitted by a 4 parametric logistic model using the Marquardt-Levenberg algorithm (Sigmaplot 4.0, SPSS Inc., Chicago, Ill., USA) (De Boever et al. (2001) Env. Health Perspectives 109, 691-697).” left out

[2] = Incubation of IX and 8-PN with Eubacterium limosum for 13 days; type: in vitro ADME; details: Eubacterium limosum, Eubacterium limosum ATCC 8486 culture; E. limosum, 25 mg/l substrate, 13 days anaerobic; average (stdev) molar percentage
Procedure: Eubacterium limosum ATCC 8486 and Peptostreptococcus productus ATCC 27340 were obtained from the German Collection of Microorganisms and Cell Cultures (DSMZ, Braunschweig, Germany). E. limosum was incubated for 13 days in Brain Heart Infusion broth (with 0.5 g/l cystein-HCl) with 25 mg/l of IX and 8-PN under anaerobic conditions (Table 2). This strain was able to convert IX into 8-PN. […] This feature is clearly different from the metabolic pathway as observed in liver microsomes wherein 8-PN is extensively further metabolised [Nikolic et al. (2005) J. of Mass Spectrom. 40, 289-299; Nikolic et al. (2004) Drug Metabolism and Disposition 32, 272-279].

[3] = Urinary IX and 8-PN excretion in axenic and Human Flora Associated (HFA) rats; type: in vivo, rat; details: 2 mg IX/kg body weight daily
Procedure: An experiment with axenic and Human Flora Associated (HFA) rats was performed to test the capacity of the selected strain of example 2 to activate methylated prenylflavonoids in vivo. A total of 12 axenic rats were used for the study. When the rats were 5 weeks old, 3 HFA rats were associated by oral gavage with a freshly voided, homogenized fecal culture which has prenylflavonoid demethylating activity. These HFA rats were designated PF+ rats.
At the same time, 3 HFA rats were associated by oral gavage with a freshly voided, homogenized fecal culture without prenylflavonoid demethylating activity. These HFA rats were designated PF− rats. The remaining rats were kept under sterile conditions. All rats were kept in separate, closed collective cages prior to the start of the experiment.
After 3 weeks of stabilization of the microbial cultures inside the rat intestine, a first experiment was started. After moving the rats to individual metabolism cages, 2 mg IX/kg body weight was daily administered to each rat for 5 days and each day 24 h-pooled urine was collected. After 3 days, the urinary IX and 8-PN excretion was quantified. […]
Herein, the 6 axenic rats were associated with the selected E. limosum strain of example 2 for 7 days by daily oral gavage with a log 9 bacterial suspension. […] On day 7, the urinary IX and 8-PN excretion was quantified.

COc1cc(O)c(CC=C(C)C)c2c1C(=O)C[C@@H](c1ccc(O)cc1)O2 [IX, 5-O-methyl-8-prenylnaringenin]
Transformation of IX (human fecal cultures): recalcitrant to transformation
Estrogenic response of incubation extracts ([1]; fecal culture C incubated with 25 mg/l IX, after 8 days): strong increase in the estrogenic properties
Estrogenic response of incubation extracts ([1]; fecal cultures A-D incubated with 25 mg/l IX, day 0): None of the incubations showed an estrogenic response
recovery at 13 days, 25 mg/l [2]: 51.4%
24 h-pooled urinary % 8-PN/(IX + 8-PN) excretion, Mean (Stdev) ([3]; PF+ HFA rats): 55.3 (9.1) %
24 h-pooled urinary % 8-PN/(IX + 8-PN) excretion, Mean (Stdev) ([3]; PF− HFA rats): 23.6 (10.4) %
